Structures are written as SMILES. pIC50: −log10 of the molar value.

For assay [1], the target named is T1, Spermidine synthase (Trypanosoma cruzi (strain CL Brener), UniProt Q4CXJ6).
T1 sequence (Q4CXJ6 whole entry): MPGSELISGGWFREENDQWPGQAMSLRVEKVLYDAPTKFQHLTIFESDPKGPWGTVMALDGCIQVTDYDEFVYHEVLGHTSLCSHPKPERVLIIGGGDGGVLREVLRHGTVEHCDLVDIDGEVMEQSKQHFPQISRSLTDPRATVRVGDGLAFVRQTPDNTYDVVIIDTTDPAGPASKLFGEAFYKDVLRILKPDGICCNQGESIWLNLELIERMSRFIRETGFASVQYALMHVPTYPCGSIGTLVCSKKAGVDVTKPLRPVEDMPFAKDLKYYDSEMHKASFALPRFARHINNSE
Briefly: Inhibition of Trypanosoma cruzi strain CL Brener N-terminal poly-His tagged spermidine synthase expressed in Escherichia coli BL21(DE3) using 50 uM putrescine as substrate in presence of 100 uM dcSAM incubated for 1 hr by NMR analysis based constant-time batch reaction assay.

In assay [2] the target is T2, Spermidine synthase (Sus scrofa, UniProt Q6QA75).
T2 sequence (Q6QA75 whole entry): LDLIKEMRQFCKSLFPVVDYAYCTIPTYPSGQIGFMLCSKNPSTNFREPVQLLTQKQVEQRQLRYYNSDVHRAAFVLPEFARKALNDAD
Briefly: Inhibition of porcine spermidine synthase assessed as production of labeled 5'-methylthioadenosine using putrescine as substrate by enzymatic assay in presence of 10 uM decarboxylated AdoMet.

The target of assay [3] is T1, Spermidine synthase.
Description: Inhibition of Trypanosoma cruzi strain CL Brener N-terminal poly-His tagged spermidine synthase expressed in Escherichia coli BL21(DE3) using 0.5 mM putrescine as substrate in presence of 1 mM dcSAM by FA-real time NMR analysis

`NC1=Nc2ccccc2SC1`: the pIC50 (commonly the IC50 on a negative log10 scale, so that one unit is a factor of ten) at Spermidine synthase [1] is 4.00.
Take `C[C@H]1CC[C@H](N)CC1`: the negative-log IC50 (pIC50) at Spermidine synthase [2] is 5.77; on Spermidine synthase [1] it was 7.03; against Spermidine synthase [3], 6.21.

Source of the values: ChEMBL document CHEMBL3779867, “An NMR Biochemical Assay for Fragment-Based Drug Discovery: Evaluation of an Inhibitor Activity on Spermidine Synthase of Trypanosoma cruzi” (J Med Chem, 2016).
